# Data as given in article PMC7341468 (BMC Pharmacology & Toxicology, 2020).
# Key:
# [1] = system: methicillin-resistant Staphylococcus aureus (MRSA)
# Description: This retrospective study was conducted between June 2015 and May 2019, and was approved by the Institutional Review Board of Hyogo College of Medicine (No. 3266). […] The analysis of Cmin and the safety population included all eligible patients.
# MRSA isolates = conditions: all MRSA isolates; microdilution, CLSI M02 and M07
substance,measurement,setting,value
teicoplanin,Clinical success at the end of the therapy,"[1]; all patients of the clinical efficacy population, 55 of 76 patients",72.4%
same,Crude odds ratio (95% CI) for early clinical response,"[1]; factor: Enhanced high dose loading regimen, univariate analysis",0.90 (0.31–2.63)
same,Adjusted odds ratio (95%CI) for early clinical response,"[1]; human, in vivo",3.95 (1.25–12.53)
same,Teicoplanin MICs,MRSA isolates,≤ 2 µg/mL
